The supplement of paper PMC11451515

Test system: P12-Ichikawa
Assay: cell viability relative to DMSO control; higher = less cytotoxic
Conditions: 48 h
Method in brief: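 Viability is expressed as a percentage of DMSO wells within each plate, and cell-free wells serve as background. Seeding densities in the 1536-well plates (5 μl) were 500 cells/well for NOMO1 or SEM leukemia cells and 1000 cells/well for P12-Ichikawa. Each line was adapted for at least four passages in each medium. Library compounds in DMSO were pin-dosed at 47 μM to 0.79 nM (11 points, threefold), and CellTiter-Glo One luminescence was read after 48 h at 37°C.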

[1] = HPLM + 10% dialyzed FBS, 0.000781 µM
[2] = HPLM + 10% dialyzed FBS, 0.00234 µM
[3] = HPLM + 10% dialyzed FBS, 0.00702 µM
[4] = HPLM + 10% dialyzed FBS, 0.0211 µM
[5] = HPLM + 10% dialyzed FBS, 0.0632 µM
[6] = HPLM + 10% dialyzed FBS, 0.19 µM
[7] = HPLM + 10% dialyzed FBS, 0.569 µM
[8] = HPLM + 10% dialyzed FBS, 1.71 µM
[9] = HPLM + 10% dialyzed FBS, 5.12 µM
[10] = HPLM + 10% dialyzed FBS, 15.4 µM
[11] = HPLM + 10% dialyzed FBS, 46.1 µM
[12] = RPMI 5 mM glucose + 10% FBS, 0.000781 µM
[13] = RPMI 5 mM glucose + 10% FBS, 0.00234 µM
[14] = RPMI 5 mM glucose + 10% FBS, 0.00702 µM
[15] = RPMI 5 mM glucose + 10% FBS, 0.0211 µM
[16] = RPMI 5 mM glucose + 10% FBS, 0.0632 µM
[17] = RPMI 5 mM glucose + 10% FBS, 0.19 µM
[18] = RPMI 5 mM glucose + 10% FBS, 0.569 µM
[19] = RPMI 5 mM glucose + 10% FBS, 1.71 µM
[20] = RPMI 5 mM glucose + 10% FBS, 5.12 µM
[21] = RPMI 5 mM glucose + 10% FBS, 15.4 µM
[22] = RPMI 5 mM glucose + 10% FBS, 46.1 µM
[23] = RPMI 5 mM glucose + 10% dialyzed FBS, 0.000781 µM
[24] = RPMI 5 mM glucose + 10% dialyzed FBS, 0.00234 µM
[25] = RPMI 5 mM glucose + 10% dialyzed FBS, 0.00702 µM
[26] = RPMI 5 mM glucose + 10% dialyzed FBS, 0.0211 µM
[27] = RPMI 5 mM glucose + 10% dialyzed FBS, 0.0632 µM
[28] = RPMI 5 mM glucose + 10% dialyzed FBS, 0.19 µM
[29] = RPMI 5 mM glucose + 10% dialyzed FBS, 0.569 µM
[30] = RPMI 5 mM glucose + 10% dialyzed FBS, 1.71 µM
[31] = RPMI 5 mM glucose + 10% dialyzed FBS, 5.12 µM
[32] = RPMI 5 mM glucose + 10% dialyzed FBS, 15.4 µM
[33] = RPMI 5 mM glucose + 10% dialyzed FBS, 46.1 µM

SMILES	cell viability [1] [%]	cell viability [2] [%]	cell viability [3] [%]	cell viability [4] [%]	cell viability [5] [%]	cell viability [6] [%]	cell viability [7] [%]	cell viability [8] [%]	cell viability [9] [%]	cell viability [10] [%]	cell viability [11] [%]	cell viability [12] [%]	cell viability [13] [%]	cell viability [14] [%]	cell viability [15] [%]	cell viability [16] [%]	cell viability [17] [%]	cell viability [18] [%]	cell viability [19] [%]	cell viability [20] [%]	cell viability [21] [%]	cell viability [22] [%]	cell viability [23] [%]	cell viability [24] [%]	cell viability [25] [%]	cell viability [26] [%]	cell viability [27] [%]	cell viability [28] [%]	cell viability [29] [%]	cell viability [30] [%]	cell viability [31] [%]	cell viability [32] [%]	cell viability [33] [%]
Cc1cn2c(-c3cn[nH]c3)cnc2c(Nc2ccc(C(=O)N3CCNCC3)cc2F)n1	98.2	104	100	99.8	101	103	104	97.7	91.9	73.4	43.5	105	98.3	95.7	91.8	103	96.8	95.1	96.9	90.4	74.6	49.2	104	105	102	99.5	105	107	109	95.6	94.4	65.3	42.5
Cc1c(CN2CCN(C(=O)[C@H](C)O)CC2)sc2c(N3CCOCC3)nc(-c3cnc(N)nc3)nc12	96.6	99.8	99.1	103	94.9	99.8	75	69.3	63.8	60.8	59.8	95.6	94	90.7	86.8	75.1	79.5	64.4	52.9	49.4	46.2	43.5	93.5	94.8	97.4	98.5	81.6	77.8	63.1	54.5	41.9	46	42.6
COc1cccc2cc(-c3nc(C4CCC(C(=O)O)CC4)n4ncnc(N)c34)[nH]c12 (stereo not given)	111	117	120	112	91.3	98.6	21	14.3	13.8	14.2	24.5	109	116	114	99.9	89	91.4	67.8	18.7	13.8	13.4	12.6	115	123	112	119	89.6	93.3	70.2	26.5	23.2	20.1	22.3
COC(=O)Nc1nc2cc(C(=O)c3cccs3)ccc2[nH]1	121	107	110	55.9	37	17.8	25.4	14.6	10.1	10.2	36.8	117	123	119	82	42.2	18.1	23.3	16.7	10.5	11.8	33.1	120	114	128	96.5	57.6	27.3	35	25.1	17.4	18.5	48
CC(C)n1nc(-c2cc3cc(O)ccc3[nH]2)c2c(N)ncnc21	109	107	112	106	99.4	90	73	72.7	64.9	47.4	36.8	100	109	110	95.3	92.8	79.5	66.5	56.9	52.5	35.4	17.5	105	116	111	118	108	86.4	73.6	66.6	48.6	30.8	20.5
